The test system of data set [1] is males and females with IBS-c. Briefly: Phase 2a clinical trial: safety measurements (vital signs, adverse events, clinical laboratory testing, ECGs). The format is in vivo, human. To be noted: 0.2, 0.5, 0.8 or 1.4 mg three times a day for 28 days. Here is the method:
The Clinical Trial reported herein was a Phase 2a, Randomized, Double-Blind, Placebo-Controlled Study. In the Study, 91 males and females with IBS-c were administered doses of DDP733 (0.2, 0.5, 0.8 and 1.4 mg) and placebo, three times a day for 28 days (4 weeks). Study Details: • Phase 2a, randomized, double-blinded, placebo controlled parallel group design • 91 males and females with IBS-c • 7 week study with 4 weeks of treatment • Five treatment groups: • DDP733: 0.2 mg, 0.5 mg, 0.8 mg or 1.4 mg three times a day (approximately 30 to 60 minutes before breakfast, lunch and dinner) • PLACEBO: Three times a day (approximately 30 to 60 minutes before breakfast, lunch and dinner). Safety measurements included monitoring of vital signs and adverse events, clinical laboratory testing and performance of electrocardiograms (ECGs).

For data set [2], the system named is males and females with IBS-c. Briefly: Phase 2a randomized, double-blind, placebo-controlled clinical trial: weekly symptom-based assessments (OSGA, abdominal discomfort/pain, constipation, satisfaction with bowel habit). The format is in vivo, human. Here is the method:
The Clinical Trial reported herein was a Phase 2a, Randomized, Double-Blind, Placebo-Controlled Study. In the Study, 91 males and females with IBS-c were administered doses of DDP733 (0.2, 0.5, 0.8 and 1.4 mg) and placebo, three times a day for 28 days (4 weeks). Study Details: • Phase 2a, randomized, double-blinded, placebo controlled parallel group design • 91 males and females with IBS-c • 7 week study with 4 weeks of treatment • Five treatment groups: • DDP733: 0.2 mg, 0.5 mg, 0.8 mg or 1.4 mg three times a day (approximately 30 to 60 minutes before breakfast, lunch and dinner) • PLACEBO: Three times a day (approximately 30 to 60 minutes before breakfast, lunch and dinner). • Assess effect on relief of IBS-c using symptom-based assessment including the following weekly questions: Overall response (OSGA); Abdominal discomfort/pain; Constipation; and Satisfaction with bowel habit. • Assess effect on pharmacodynamic measure (gastrointestinal transit) at baseline and week 4 using radio-opaque markers. • Establish safety profile. Key Subject Inclusion Criteria: • 1. Male or female from 18 to 65 years of age, inclusive • 2. IBS-c for at least three months prior to randomization as defined by the subject's response to the criteria below adapted from the Rome II • Modular Questionnaire: • a. Subject experiences discomfort or pain in the abdomen during at least 3 weeks (at least one day in each week) in the last 3 months. • b. Subject experiences one or more of the following: • i. Discomfort or pain that gets better or stops after a bowel movement • ii. Change in the usual number of bowel movements (either more or fewer) when the discomfort or pain starts • iii. Softer or harder stools than usual when the discomfort or pain starts • c. Patient experiences two or more of the following at least one-fourth (¼) of the occasions or days in the last three months: • i. Fewer than three bowel movements per week (0-2) • ii. Hard or lumpy stools • iii. Straining during a bowel movement • d. Patient experiences none of the following more than one-fourth (¼) of the occasions or days in the last three months: • i. More than three bowel movements a day (4 or more) • ii. Loose, mushy or watery stools • iii. Having to rush to the toilet to have a bowel movement • 3. Completion of at least six days of daily diary assessments in the week of screening prior to Visit 3 with a documented average stool consistency score of ≦2.5. Stool consistency was rated as 1=very hard, 2=hard, 3=formed, 4=loose, 5=watery. Clinical Symptoms were assessed using the following weekly questions: [table] […] Subjects were defined as Overall SGA responders, prior to the study, if: • 1. Somewhat relieved or better at 100% of SGAs (Response 3 at all weekly time points), or considerably/completely relieved for at least 50% of SGAs (Response 1 or 2 for at least 2 of the 4 weekly timepoints) or considerably/completely relieved at Week 4 (Response 1 or 2 at Week AND • 2. No more than 5 days of laxative use excluding bulk-forming laxatives over the 4-week treatment period.

[3] abbreviates: overall responders within the 1.4 mg, 3 times a day treatment group.

Entries after “also recorded” stand apart in the source; their conditions may differ.

Regarding `O=C(N[C@H]1CN2CCC1CC2)c1c[nH]c2ccsc2c1=O` [DDP733, (R)—N-1-azabicyclo[2.2.2]oct-3-yl-4,7-dihydro-7-oxothieno[3,2-b]pyridine-6-carboxamide], in data set [1], the “drug related adverse events (nausea, pruritis and rash)” value is “mainly mild-moderate, transient in nature and required no intervention”; the “lab or ECG abnormalities” value is recorded as “no pattern of lab or ECG abnormalities”. Further, the “subjects reporting overall symptom relief (Overall SGA responders, OSGA)” value in data set [2] (1.4 mg three times a day (4.2 mg/day), oral, 4-week treatment, IBS-c subjects, placebo about 15%) is on record as 54%. For the same compound, the “statistical significance on clinical endpoint overall symptom relief (OSGA)” value in data set [2] (1.4 mg three times a day (4.2 mg/day), Pearson chi squared test) is “Statistical significance (using the Pearson chi squared test) was achieved”. Also, in data set [2] (1.4 mg three times a day, one week post-treatment (FIG. 2)), the “OSGA clinical response at one week post-treatment” value was “lost (i.e., returned to the level of placebo); also recorded: loss of response (return to level of placebo response)”. For the same compound, the “other weekly subject global assessments (abdominal discomfort/pain, constipation, satisfaction with bowel habit)” value in data set [2] (4.2 mg/day dose, Questionnaires 2, 3 and 4) is reported as “consistent pattern of improvement”. In addition, the “diarrhea reported by responders during the treatment period” value in data set [2] (4.2 mg/day group, responders) is reported as “no responders reported any diarrhea”. Also, the “laxative use among responders showing overall symptom relief” value in data set [2] (4.2 mg/day group, responders, treatment period) is listed as “relief was achieved in all responders without the use of laxatives”. Also, in data set [2] (setting [3]), the “constipation and satisfaction with bowel habit” value is “also improved on treatment”; the “weekly pain response (Variable 2, abdominal discomfort/pain)” value is listed as “a decrease in weekly pain response was observed”.
